{"source": "paper PMC5218480", "about": "(PLoS ONE, 2017)", "system": "MV-4-11 cells", "assay": "Gene expression microarray analysis (Affymetrix PrimeView) and GSEA", "format": "cell-based, human", "set-up": "RFU PODN (11730768_x_at) / Fold change /veh PODN (11730768_x_at) / RFU LINC00158 (11744669_a_at) / Fold change /veh LINC00158 (11744669_a_at) / RFU DUSP10 (11751237_a_at) / Fold change /veh DUSP10 (11751237_a_at) / RFU ID3 (11757404_x_at) / Fold change /veh ID3 (11757404_x_at) / RFU PLEKHG5 (11737974_s_at) / Fold change /veh PLEKHG5 (11737974_s_at) / RFU LRRC4B (11730491_at) / Fold change /veh LRRC4B (11730491_at) / RFU GIMAP4 (11747438_a_at) / Fold change /veh GIMAP4 (11747438_a_at) / RFU KRT8 (11758183_x_at) / Fold change /veh KRT8 (11758183_x_at) / RFU CNN1 (11734310_a_at) / Fold change /veh CNN1 (11734310_a_at) / RFU VPS37D (11726825_at) / Fold change /veh VPS37D (11726825_at) / RFU C10orf10 (11716522_x_at) / Fold change /veh C10orf10 (11716522_x_at) / RFU KIR2DL2 /// KIR2DL4 /// KIR2DL5A /// KIR2DL5B /// KIR2DS1 /// KIR2DS2 /// KIR2DS3 /// KIR2DS4 /// KIR3DL3 /// KIR3DL3 /// KIR3DS1 (11738374_at) / Fold change /veh KIR2DL2 /// KIR2DL4 /// KIR2DL5A /// KIR2DL5B /// KIR2DS1 /// KIR2DS2 /// KIR2DS3 /// KIR2DS4 /// KIR3DL3 /// KIR3DL3 /// KIR3DS1 (11738374_at) / RFU C1QL1 (11718748_at) / Fold change /veh C1QL1 (11718748_at) / RFU TMPRSS4 (11747572_a_at) / Fold change /veh TMPRSS4 (11747572_a_at) / RFU HAMP (11756126_x_at) / Fold change /veh HAMP (11756126_x_at) / RFU RNFT2 (11725882_a_at) / Fold change /veh RNFT2 (11725882_a_at) / RFU NR4A2 (11747474_a_at) / Fold change /veh NR4A2 (11747474_a_at) / RFU ABCC12 (11746883_a_at) / Fold change /veh ABCC12 (11746883_a_at) / RFU TMEM136 (11760407_x_at) / Fold change /veh TMEM136 (11760407_x_at) / RFU CLDN22 /// WWC2 (11732394_at) / Fold change /veh CLDN22 /// WWC2 (11732394_at) / RFU HLA-DPB1 (11760878_x_at) / Fold change /veh HLA-DPB1 (11760878_x_at) / RFU SPINT1 (11716480_a_at) / Fold change /veh SPINT1 (11716480_a_at) / RFU GAP43 (11754022_s_at) / Fold change /veh GAP43 (11754022_s_at) / RFU A4GNT (11735810_at) / Fold change /veh A4GNT (11735810_at) / RFU PRB3 (11715151_x_at) / Fold change /veh PRB3 (11715151_x_at) / RFU TUBB4B (11761932_at) / Fold change /veh TUBB4B (11761932_at) / RFU CAPN14 (11732068_a_at) / Fold change /veh CAPN14 (11732068_a_at) / RFU TMCC2 (11721928_a_at) / Fold change /veh TMCC2 (11721928_a_at) / RFU IRGQ (11745062_a_at) / Fold change /veh IRGQ (11745062_a_at) / RFU FAM174B (11720279_a_at) / Fold change /veh FAM174B (11720279_a_at) / RFU TMPRSS4 (11748680_a_at) / Fold change /veh TMPRSS4 (11748680_a_at) / RFU FAM212B (11763350_a_at) / Fold change /veh FAM212B (11763350_a_at) / RFU PLEKHG5 (11743358_a_at) / Fold change /veh PLEKHG5 (11743358_a_at) / RFU ZSCAN30 (11745921_a_at) / Fold change /veh ZSCAN30 (11745921_a_at) / RFU CMKLR1 (11741424_a_at) / Fold change /veh CMKLR1 (11741424_a_at) / RFU LOC101060620 /// MAPK8IP1 (11723275_at) / Fold change /veh LOC101060620 /// MAPK8IP1 (11723275_at) / RFU SPTSSB (11747773_x_at) / Fold change /veh SPTSSB (11747773_x_at) / RFU PRSS12 (11739890_at) / Fold change /veh PRSS12 (11739890_at) / RFU BIN1 (11741810_x_at) / Fold change /veh BIN1 (11741810_x_at) / RFU WNT11 (11732464_a_at) / Fold change /veh WNT11 (11732464_a_at) / RFU C10orf10 (11716521_a_at) / Fold change /veh C10orf10 (11716521_a_at) / RFU C5orf56 (11738089_at) / Fold change /veh C5orf56 (11738089_at) / RFU CYB561 (11721691_x_at) / Fold change /veh CYB561 (11721691_x_at) / RFU ANKRD19P (11752326_a_at) / Fold change /veh ANKRD19P (11752326_a_at) / RFU OR2T12 /// OR2T33 /// OR2T8 (11738714_s_at) / Fold change /veh OR2T12 /// OR2T33 /// OR2T8 (11738714_s_at) / RFU VCAN (11748164_a_at) / Fold change /veh VCAN (11748164_a_at) / RFU JSRP1 (11732532_at) / Fold change /veh JSRP1 (11732532_at) / RFU KRTAP10-11 (11738290_x_at) / Fold change /veh KRTAP10-11 (11738290_x_at) / RFU MYO3A (11730013_a_at) / Fold change /veh MYO3A (11730013_a_at) / RFU EBF3 (11725865_a_at) / Fold change /veh EBF3 (11725865_a_at) / RFU CAMK2N1 (11719241_x_at) / Fold change /veh CAMK2N1 (11719241_x_at) / RFU C5orf56 (11738088_a_at) / Fold change /veh C5orf56 (11738088_a_at) / RFU OLFML3 (11715873_a_at) / Fold change /veh OLFML3 (11715873_a_at) / RFU LOC100653217 /// NTM (11731650_a_at) / Fold change /veh LOC100653217 /// NTM (11731650_a_at) / RFU MAPK11 (11762145_a_at) / Fold change /veh MAPK11 (11762145_a_at) / RFU FIZ1 (11724087_x_at) / Fold change /veh FIZ1 (11724087_x_at) / RFU OASL (11726364_x_at) / Fold change /veh OASL (11726364_x_at) / RFU SOX15 (11748057_x_at) / Fold change /veh SOX15 (11748057_x_at) / RFU CD79A (11719716_a_at) / Fold change /veh CD79A (11719716_a_at) / RFU HIST1H1D (11736915_at) / Fold change /veh HIST1H1D (11736915_at) / RFU CASKIN2 (11723855_a_at) / Fold change /veh CASKIN2 (11723855_a_at) / RFU LOC730098 (11760151_x_at) / Fold change /veh LOC730098 (11760151_x_at) / RFU OR4N2 (11742367_at) / Fold change /veh OR4N2 (11742367_at) / RFU PRRT2 (11749266_a_at) / Fold change /veh PRRT2 (11749266_a_at) / RFU SNX32 (11753110_a_at) / Fold change /veh SNX32 (11753110_a_at) / RFU CDHR5 (11726645_a_at) / Fold change /veh CDHR5 (11726645_a_at) / RFU RCAN1 (11760418_a_at) / Fold change /veh RCAN1 (11760418_a_at) / RFU FAM167A (11723789_a_at) / Fold change /veh FAM167A (11723789_a_at) / RFU FAM26E (11764081_at) / Fold change /veh FAM26E (11764081_at) / RFU ISYNA1 (11749810_s_at) / Fold change /veh ISYNA1 (11749810_s_at) / RFU ACY1 (11761880_at) / Fold change /veh ACY1 (11761880_at) / RFU 11764098_at / Fold change /veh 11764098_at / RFU SAMD14 (11745864_x_at) / Fold change /veh SAMD14 (11745864_x_at) / RFU NPB (11741838_a_at) / Fold change /veh NPB (11741838_a_at) / RFU TMPRSS6 (11731388_a_at) / Fold change /veh TMPRSS6 (11731388_a_at) / RFU KRTAP10-2 (11738614_at) / Fold change /veh KRTAP10-2 (11738614_at) / RFU ARHGAP8 /// PRR5-ARHGAP8 (11727945_x_at) / Fold change /veh ARHGAP8 /// PRR5-ARHGAP8 (11727945_x_at) / RFU KRTAP5-7 /// NADSYN1 (11734609_at) / Fold change /veh KRTAP5-7 /// NADSYN1 (11734609_at) / RFU RASL12 (11751679_a_at) / Fold change /veh RASL12 (11751679_a_at) / RFU CDKN2B (11736163_a_at) / Fold change /veh CDKN2B (11736163_a_at) / RFU PRF1 (11729649_at) / Fold change /veh PRF1 (11729649_at) / RFU, ZNF638 /// ZNF638-IT1 / Fold change vs veh, ZNF638 /// ZNF638-IT1 / RFU, PANK3 / Fold change vs veh, PANK3 / RFU, SH3YL1 / Fold change vs veh, SH3YL1 / RFU, ZEB2 / Fold change vs veh, ZEB2 / RFU, NRIP1 / Fold change vs veh, NRIP1 / RFU, PTTG1IP / Fold change vs veh, PTTG1IP / RFU, CAPN2 / Fold change vs veh, CAPN2 / RFU, MED14 / Fold change vs veh, MED14 / RFU, SNORA58 / Fold change vs veh, SNORA58 / RFU, C1orf63 / Fold change vs veh, C1orf63 / RFU, LRRFIP1 / Fold change vs veh, LRRFIP1 / RFU, NDUFAF7 / Fold change vs veh, NDUFAF7 / RFU, SLC12A2 / Fold change vs veh, SLC12A2 / RFU, IBTK / Fold change vs veh, IBTK / RFU, ESF1 / Fold change vs veh, ESF1 / Fold change vs veh, TMEM50B / RFU, TAOK1 / Fold change vs veh, TAOK1 / RFU, ACBD3 / Fold change vs veh, ACBD3 / RFU, TMA16 / Fold change vs veh, TMA16 / RFU, RWDD3 / Fold change vs veh, RWDD3 / RFU, BCAT1 / Fold change vs veh, BCAT1 / RFU, EDEM3 / Fold change vs veh, EDEM3 / RFU, TMEM33 / Fold change vs veh, TMEM33 / RFU, WDR75 / Fold change vs veh, WDR75 / RFU, AHCTF1 / Fold change vs veh, AHCTF1 / RFU, TFRC / Fold change vs veh, TFRC / RFU, ZDHHC17 / Fold change vs veh, ZDHHC17 / RFU, NOM1 / Fold change vs veh, NOM1 / RFU, ARL8B / Fold change vs veh, ARL8B / RFU, ZBTB11 / Fold change vs veh, ZBTB11 / RFU, TAMM41 / Fold change vs veh, TAMM41 / RFU, KIAA1704 /// LOC100996395 / Fold change vs veh, KIAA1704 /// LOC100996395 / RFU, ING1 / Fold change vs veh, ING1 / RFU, TRMT61B / Fold change vs veh, TRMT61B / RFU, FUBP3 / Fold change vs veh, FUBP3 / RFU, TP53 / Fold change vs veh, TP53 / RFU, TNKS2 / Fold change vs veh, TNKS2 / RFU, ZFP14 / Fold change vs veh, ZFP14 / RFU, ACTR2 / Fold change vs veh, ACTR2 / RFU, PPP3R1 / Fold change vs veh, PPP3R1 / RFU, PIK3R1 / Fold change vs veh, PIK3R1 / RFU, HNRNPA1 / Fold change vs veh, HNRNPA1 / RFU, RNF170 / Fold change vs veh, RNF170 / RFU, ZNF28 / Fold change vs veh, ZNF28 / RFU, RNGTT / Fold change vs veh, RNGTT / RFU, OGT / Fold change vs veh, OGT / RFU, BRD1 / Fold change vs veh, BRD1 / RFU, MARS / Fold change vs veh, MARS / RFU, ZNF655 / Fold change vs veh, ZNF655 / RFU, FAHD1 / Fold change vs veh, FAHD1 / RFU, BDP1 / Fold change vs veh, BDP1 / RFU, LRRCC1 / Fold change vs veh, LRRCC1 / RFU, ARID1A / Fold change vs veh, ARID1A / RFU, ZNF146 / Fold change vs veh, ZNF146 / RFU, ZNF330 / Fold change vs veh, ZNF330 / RFU, GPN3 / Fold change vs veh, GPN3 / RFU, C9orf123 / Fold change vs veh, C9orf123 / RFU, N4BP2L2 / Fold change vs veh, N4BP2L2 / RFU, ARFIP1 / Fold change vs veh, ARFIP1 / RFU, FAM179B / Fold change vs veh, FAM179B / RFU, BCL10 / Fold change vs veh, BCL10 / RFU, UHRF1BP1L / Fold change vs veh, UHRF1BP1L / RFU, BET1 / Fold change vs veh, BET1 / RFU, CNOT2 / Fold change vs veh, CNOT2 / RFU, ZNF268 / Fold change vs veh, ZNF268 / Fold change vs veh, ZNF507 / RFU, DGCR2 / Fold change vs veh, DGCR2 / RFU, WDSUB1 / Fold change vs veh, WDSUB1 / Fold change vs veh, HSP90B1 /// MIR3652 / RFU, ADSS / Fold change vs veh, ADSS / RFU, GK / Fold change vs veh, GK / RFU, ZNF148 / Fold change vs veh, ZNF148 / RFU, TAF9 / Fold change vs veh, TAF9 / RFU, SLC1A5 / Fold change vs veh, SLC1A5 / RFU, SLMO2 / Fold change vs veh, SLMO2 / RFU, ABCC4 / Fold change vs veh, ABCC4 / RFU, LOC101060439 /// RAP1B / Fold change vs veh, LOC101060439 /// RAP1B / RFU, RFX7 / Fold change vs veh, RFX7 / RFU, GTPBP10 / Fold change vs veh, GTPBP10 / RFU, CNEP1R1 / Fold change vs veh, CNEP1R1 / RFU, BIVM-ERCC5 /// ERCC5 / Fold change vs veh, BIVM-ERCC5 /// ERCC5 / RFU, ILF3 / Fold change vs veh, ILF3 / RFU 11762660_at / Fold change /veh 11762660_at / RFU VCAN (11757783_s_at) / Fold change /veh VCAN (11757783_s_at) / RFU DDX43 (11728927_at) / Fold change /veh DDX43 (11728927_at) / RFU KRT8 (11758188_x_at) / Fold change /veh KRT8 (11758188_x_at) / RFU NKD1 (11759106_at) / Fold change /veh NKD1 (11759106_at) / RFU SRD5A1 (11742802_a_at) / Fold change /veh SRD5A1 (11742802_a_at) / RFU TPSAB1 /// TPSB2 (11721975_s_at) / Fold change /veh TPSAB1 /// TPSB2 (11721975_s_at) / RFU GSTM3 (11746129_a_at) / Fold change /veh GSTM3 (11746129_a_at) / RFU IL23R (11737362_x_at) / Fold change /veh IL23R (11737362_x_at) / RFU TMEM51 (11727254_a_at) / Fold change /veh TMEM51 (11727254_a_at) / RFU PIWIL2 (11732686_x_at) / Fold change /veh PIWIL2 (11732686_x_at) / RFU ORM1 (11744905_x_at) / Fold change /veh ORM1 (11744905_x_at) / RFU CCDC152 (11743942_at) / Fold change /veh CCDC152 (11743942_at) / RFU ECM1 (11717891_a_at) / Fold change /veh ECM1 (11717891_a_at) / RFU IL23R (11748794_a_at) / Fold change /veh IL23R (11748794_a_at) / RFU TNFAIP8L3 (11732012_x_at) / Fold change /veh TNFAIP8L3 (11732012_x_at) / RFU MBOAT4 (11741988_at) / Fold change /veh MBOAT4 (11741988_at) / RFU 11764193_at / Fold change /veh 11764193_at / RFU TMEM53 (11763286_at) / Fold change /veh TMEM53 (11763286_at) / RFU MAGEB2 (11727129_at) / Fold change /veh MAGEB2 (11727129_at) / RFU TMEM200A (11744735_a_at) / Fold change /veh TMEM200A (11744735_a_at) / RFU CCDC152 (11751479_a_at) / Fold change /veh CCDC152 (11751479_a_at) / RFU FAM211A (11726209_a_at) / Fold change /veh FAM211A (11726209_a_at) / RFU RGS16 (11746705_a_at) / Fold change /veh RGS16 (11746705_a_at) / RFU VCAN (11755009_s_at) / Fold change /veh VCAN (11755009_s_at) / RFU RHOB (11743442_s_at) / Fold change /veh RHOB (11743442_s_at) / RFU RGS16 (11720943_a_at) / Fold change /veh RGS16 (11720943_a_at) / RFU RGS16 (11720944_at) / Fold change /veh RGS16 (11720944_at) / RFU, VPS4B / Fold change vs veh, VPS4B / RFU, CREB1 / Fold change vs veh, CREB1 / RFU, DNAJC13 / Fold change vs veh, DNAJC13 / RFU, GNAQ / Fold change vs veh, GNAQ / RFU, CDK5R1 / Fold change vs veh, CDK5R1 / RFU, ZRANB3 / Fold change vs veh, ZRANB3 / RFU, CUL4A / Fold change vs veh, CUL4A / RFU, CCNY / Fold change vs veh, CCNY / RFU, UFL1 / Fold change vs veh, UFL1 / RFU, COG3 / Fold change vs veh, COG3 / RFU, DIAPH2 / Fold change vs veh, DIAPH2 / RFU, SKA2 / Fold change vs veh, SKA2 / RFU, AFF3 / Fold change vs veh, AFF3 / RFU, LMF1 / Fold change vs veh, LMF1 / RFU, IPO11 / Fold change vs veh, IPO11 / RFU, DFFB / Fold change vs veh, DFFB / RFU, FOXP1 / Fold change vs veh, FOXP1 / RFU, CARD8 / Fold change vs veh, CARD8 / RFU, STRN3 / Fold change vs veh, STRN3 / RFU, ADK / Fold change vs veh, ADK / RFU, RASSF2 / Fold change vs veh, RASSF2 / RFU, WIPF1 / Fold change vs veh, WIPF1 / RFU, LARP1B / Fold change vs veh, LARP1B / RFU, RASA1 / Fold change vs veh, RASA1 / RFU, RB1 / Fold change vs veh, RB1 / RFU, PPFIA1 / Fold change vs veh, PPFIA1 / RFU, MAT2A / Fold change vs veh, MAT2A / RFU, CCT5 / Fold change vs veh, CCT5 / RFU, WDR92 / Fold change vs veh, WDR92 / RFU, CUX1 / Fold change vs veh, CUX1 / RFU, TTC7A / Fold change vs veh, TTC7A / RFU, TMEM135 / Fold change vs veh, TMEM135 / RFU, DEPTOR / Fold change vs veh, DEPTOR / RFU, CPM / Fold change vs veh, CPM / RFU, DNAJB6 / Fold change vs veh, DNAJB6 / RFU, CACNA2D3 / Fold change vs veh, CACNA2D3 / RFU, DTX4 / Fold change vs veh, DTX4 / RFU, TFCP2 / Fold change vs veh, TFCP2 / RFU, GMCL1 /// GMCL1P1 / Fold change vs veh, GMCL1 /// GMCL1P1 / RFU, AEBP2 / Fold change vs veh, AEBP2 / RFU, SNHG1 /// SNORD22 /// SNORD25 /// SNORD26 /// SNORD27 /// SNORD28 /// SNORD29 /// SNORD31 / Fold change vs veh, SNHG1 /// SNORD22 /// SNORD25 /// SNORD26 /// SNORD27 /// SNORD28 /// SNORD29 /// SNORD31 / Fold change (Aza/veh), C12orf56 (ProbeSet 11735607_a_at) / Fold change (ACY-1035/veh), C12orf56 (ProbeSet 11735607_a_at) / Fold change (Aza/veh), FGFR1OP (ProbeSet 11751329_s_at) / Fold change (ACY-1035/veh), FGFR1OP (ProbeSet 11751329_s_at) / Fold change (Aza/veh), VPS36 (ProbeSet 11739960_a_at) / Fold change (ACY-1035/veh), VPS36 (ProbeSet 11739960_a_at) / RFU SYPL1 (11715823_x_at) / Fold change /veh SYPL1 (11715823_x_at) / RFU IGFBP7 (11715501_s_at) / Fold change /veh IGFBP7 (11715501_s_at) / RFU REEP3 (11722064_at) / Fold change /veh REEP3 (11722064_at) / RFU IGLL1 (11728026_x_at) / Fold change /veh IGLL1 (11728026_x_at): dose or concentration left out as unconfirmed", "conditions": "ProbeSet 11729173_a_at; LIST D"}
{"smiles": "Nc1ccc(-c2cccs2)cc1NC(=O)c1ccc2c(c1)cc(C1CC1)n2CCN1CCOCC1", "note": "[ACY-1035]", "values": [{"measurement": "RFU, SKA2", "result": 338.69, "unit": "RFU"}]}
